Experiments:
Assay type in all cases: in vivo
[1] = test system: Descurainia sophia; experiment: Activity assay of compositions: post-emergence spray treatment of stems and leaves (F), fresh weight inhibition and combined effect (Gowing method); settings: 21 d
Procedure: (§1) The required active ingredient B was purchased from a reagent company or a technical material manufacturer or synthesized by a conventional method. The technical materials were all dissolved with acetone solvents and diluted with aqueous solution of 0.1% Tween-80 emulsifier, which should be used immediately after dilution.
Descurainia sophia weeds were cultivated by a pot culture method. […] Weed seeds with plump and uniform grains were selected, treated with 30% hydrogen peroxide for 10 min, and accelerated to germinate at 15-20° C. in a biochemical incubator (in darkness). The weed seeds that had just germinated were evenly placed on the surface of the soil and then covered with 0.5-1 cm soil according to the sizes of seeds.
The culture was carried out in a controllable sunlight greenhouse at 20-30° C., in natural light, and with relative humidity of 57%-72%.
Each treatment was repeated 4 times. Three pots with 20 weed seeds sowed per pot were treated each time.
The agents were used once in total in the experiment. When at the stage of 1.5-2 leaves, the weeds were thinned out to maintain 10 weeds per pot. Thirty weeds were kept in each treatment, and then continued to be cultured until the 10-leaf stage for further treatment.
(§2) The well-cultured test materials were evenly placed on a platform with an area of 0.5 m^2, and foliage spraying was carried out by the 3WP-2000-type walking spray tower at a dosage of 450 kg/ha and a spray pressure of 0.3 MPa. After all the solution was sprayed, the air valve was closed, and 30 seconds later, the door of the spray tower was opened, and the nutritional bowl was taken out. Next, the air valve was opened, and the spray tube was cleaned by spraying 50 ml of water. The test materials were transferred to and routinely cultured in a greenhouse after the treatment.
(§3) A method for investigating absolute numbers was employed. Whole seedlings of survival weeds were cut off along the soil surface with a blade, and the fresh weight of the weeds was weighed using an analytical balance. For dead weeds, the fresh weight thereof was zero.
(§4) The investigation was performed 21 days after the treatment for once in total.
(§5) The theoretical fresh weight inhibition rate of a mixed combination of each treatment was calculated by the Gowing method (E0=X+Y−X*Y/100). Then compared with the measured inhibition rate (E), the type of the combined effect of the combination of the two on weeds was evaluated, which was a synergistic effect when E−E0>10%; an antagonistic effect when E−E0<−10%; an additional effect when −10%≤E−E0≤10%. An optimal ratio was determined according to factors such as the actual control effects, characteristics of herbicides, balance of the formulation, etc. In the formula, X represents the fresh weight inhibition rate of the active ingredient A in a dosage of P; Y represents the fresh weight inhibition rate of the active ingredient B in a dosage of Q. The statistical results are shown in Table 4.

[2] = test system: Monochoria vaginalis; experiment: Pre-emergence sealing experiment for water-seeding; parameters: key: 9: completely dead; 8: growth control rate is greater than or equal to 90% and less than 100%; 7: growth control rate is greater than or equal to 80% and less than 90%; 6: growth control rate is greater than or equal to 70% and less than 80%; growth control rate is greater than or equal to 50% and less than 70%; 4: growth control rate is greater than or equal to 30% and less than 50%; growth control rate is greater than or equal to 20% and less than 30%; growth control rate is greater than or equal to 10% and less than 20%; growth control rate is less than 10%; 0: no effect; settings: 15 g a.i./ha, 15 days, sulfonylurea-resistant strain
Description: (§6) The activity level criteria for plant damage (i.e., growth control rate) are as follows: • Level 9: completely dead; • Level 8: growth control rate is greater than or equal to 90% and less than 100%; • Level 7: growth control rate is greater than or equal to 80% and less than 90%; • Level 6: growth control rate is greater than or equal to 70% and less than 80%; • Level 5: growth control rate is greater than or equal to 50% and less than 70%; • Level 4: growth control rate is greater than or equal to 30% and less than 50%; • Level 3: growth control rate is greater than or equal to 20% and less than 30%; • Level 2: growth control rate is greater than or equal to 10% and less than 20%; • Level 1: growth control rate is less than 10%; • Level 0: no effect.
(§7) The seeds of Leptochloa chinensis, Digitaria sanguinalis, Monochoria vaginalis (sulfonylurea-resistant strain, collected from Hunan, China), Cyperus iria (sulfonylurea-resistant strain, collected from Jiangsu, China), Huaidao (rice cultivar), etc. were broadcasted on the surface of nutrition bowls filled with soil and fully covered by soil. The prepared nutrition bowls were then placed in a cultivation box, with water filled to a suitable height to keep the soil in the nutrition bowls moist. The test compounds of the present invention were individually dissolved with mixed solutions of acetone and Tween-80, then diluted into solution of a certain concentration using a certain amount of water and sprayed using a spray tower. The plants were placed on a greenhouse seedbed and cultured for 15 days, and the experimental results were then collected. The compounds were applied at 120, 60, 30 and 15 g a.i./ha in triplicate and the results were averaged. The effects were evaluated according to the above activity level criteria.

[3] = test system: Leptochloa chinensis; experiment: Pre-emergence sealing experiment for water-seeding; parameters: key: 9: completely dead; 8: growth control rate is greater than or equal to 90% and less than 100%; 7: growth control rate is greater than or equal to 80% and less than 90%; 6: growth control rate is greater than or equal to 70% and less than 80%; growth control rate is greater than or equal to 50% and less than 70%; 4: growth control rate is greater than or equal to 30% and less than 50%; growth control rate is greater than or equal to 20% and less than 30%; growth control rate is greater than or equal to 10% and less than 20%; growth control rate is less than 10%; 0: no effect; settings: 15 g a.i./ha, 15 days
Description: as §6, §7

[4] = test system: Cyperus iria; experiment: Pre-emergence sealing experiment for water-seeding; parameters: key: 9: completely dead; 8: growth control rate is greater than or equal to 90% and less than 100%; 7: growth control rate is greater than or equal to 80% and less than 90%; 6: growth control rate is greater than or equal to 70% and less than 80%; growth control rate is greater than or equal to 50% and less than 70%; 4: growth control rate is greater than or equal to 30% and less than 50%; growth control rate is greater than or equal to 20% and less than 30%; growth control rate is greater than or equal to 10% and less than 20%; growth control rate is less than 10%; 0: no effect; settings: 15 g a.i./ha, 15 days, sulfonylurea-resistant strain
Description: as §6, §7

[5] = test system: Digitaria sanguinalis; experiment: Pre-emergence sealing experiment for water-seeding; parameters: key: 9: completely dead; 8: growth control rate is greater than or equal to 90% and less than 100%; 7: growth control rate is greater than or equal to 80% and less than 90%; 6: growth control rate is greater than or equal to 70% and less than 80%; growth control rate is greater than or equal to 50% and less than 70%; 4: growth control rate is greater than or equal to 30% and less than 50%; growth control rate is greater than or equal to 20% and less than 30%; growth control rate is greater than or equal to 10% and less than 20%; growth control rate is less than 10%; 0: no effect; settings: 15 g a.i./ha, 15 days
Description: as §6, §7

[6] = test system: monocotyledonous and dicotyledonous weeds; experiment: Pre-emergence test experiment (weeds); parameters: key: 9: completely dead; 8: growth control rate is greater than or equal to 90% and less than 100%; 7: growth control rate is greater than or equal to 80% and less than 90%; 6: growth control rate is greater than or equal to 70% and less than 80%; growth control rate is greater than or equal to 50% and less than 70%; 4: growth control rate is greater than or equal to 30% and less than 50%; growth control rate is greater than or equal to 20% and less than 30%; growth control rate is greater than or equal to 10% and less than 20%; growth control rate is less than 10%; 0: no effect; settings: 15 g a.i./ha
[7] = test system: major crops; experiment: Pre-emergence test experiment (crops); parameters: key: 9: completely dead; 8: growth control rate is greater than or equal to 90% and less than 100%; 7: growth control rate is greater than or equal to 80% and less than 90%; 6: growth control rate is greater than or equal to 70% and less than 80%; growth control rate is greater than or equal to 50% and less than 70%; 4: growth control rate is greater than or equal to 30% and less than 50%; growth control rate is greater than or equal to 20% and less than 30%; growth control rate is greater than or equal to 10% and less than 20%; growth control rate is less than 10%; 0: no effect; settings: 15 g a.i./ha
[8] = test system: weeds; experiment: Activity assay of compositions: soil sealing treatment (S), fresh weight inhibition and combined effect (Gowing method); settings: Commelina communis, 21 d
Procedure: as §1
• Weeds were cultivated in a controllable sunlight greenhouse at 20 to 30° C., in natural light, and with relative humidity of 57% to 72%. […] The test soil was quantitatively filled to ¾ of the pot, and then watered from the bottom of the pot to completely wet the soil to saturation. The test weed seeds were accelerated to just germinate, and then evenly and quantitatively broadcasted on the soil surface, covered with 0.5-1 cm soil according to the sizes of the seeds, and ready for use 72 hours after sowing.
Each treatment was repeated 4 times. Four pots with 20 weed seeds sowed per pot were treated each time.
as §2, with “well-sowed” for “well-cultured”, “closed. And” for “closed, and”, “water.” for “water. The test materials were transferred to and routinely cultured in a greenhouse after the treatment.”
as §3, §4, §5

Compound: COc1c(Cl)ccc(Cl)c1C(=O)O [Dicamba]
- Control effect of B applied alone in a corresponding dose (%) ([1]; B 37.5 g a.i./ha): 39.6%
- Control effect of B applied alone in a corresponding dose (%) ([1]; B 75 g a.i./ha): 50.8%

Compound: Cc1nn(C)cc1C(=O)Oc1c(C(=O)c2ccc(C(F)(F)F)cc2S(C)(=O)=O)c(C)nn1C [Bipyrazone]
- Control effect of B applied alone in a corresponding dose (%) ([1]; B 15 g a.i./ha): 55.4%
- Control effect of B applied alone in a corresponding dose (%) ([1]; B 30 g a.i./ha): 78.9%

Compound: Cc1ccc(-n2cnc(C(F)(F)F)n2)nc1Oc1cccc(C(F)(F)F)c1 [Compound 8]
- activity level (growth control rate, fresh weight), Monochoria vaginalis [2]: 9
- activity level (growth control rate, fresh weight), Leptochloa chinensis [3]: 9
- activity level (growth control rate, fresh weight), Cyperus iria [4]: 9
- activity level (growth control rate, fresh weight), Digitaria sanguinalis [5]: 9
- Pre-emergence activity level (growth control rate) on Amaranthus retroflexus ([6]; Amaranthus retroflexus): 9
- Pre-emergence activity level (growth control rate) on Descurainia sophia ([6]; Descurainia sophia): 9
- Pre-emergence activity level (growth control rate) on Digitaria sanguinalis ([6]; Digitaria sanguinalis): 9
- Pre-emergence activity level (growth control rate) on Setaria viridis ([6]; Setaria viridis): 9
- Pre-emergence activity level (growth control rate) on Solanum nigrum ([6]; Solanum nigrum): 9
- Pre-emergence activity level (growth control rate) on Veronica ([6]; Veronica): 9
- Pre-emergence plant damage level (growth control rate) on Corn ([7]; Corn): 0
- Pre-emergence plant damage level (growth control rate) on Cotton ([7]; Cotton): 0
- Pre-emergence plant damage level (growth control rate) on Soybean ([7]; Soybean): 0

Compound: CP(=O)(O)CCC(N)C(=O)O (centres unmarked) [Glufosinate-ammonium]
- Control effect of B applied alone in a corresponding dose (%) ([1]; B 60 g a.i./ha): 50.7%
- Control effect of B applied alone in a corresponding dose (%) ([1]; B 120 g a.i./ha): 71.5%

Compound: C[N+](C)(C)CCO.O=C([O-])COc1ccc(Cl)cc1Cl [2,4-D-Choline]
- Control effect of B applied alone in a corresponding dose (%) ([1]; B 150 g a.i./ha): 44.7%
- Control effect of B applied alone in a corresponding dose (%) ([1]; B 300 g a.i./ha): 60.0%

Compound: C[n+]1ccc(-c2cc[n+](C)cc2)cc1 [Paraquat dichloride]
- Control effect of B applied alone in a corresponding dose (%) ([1]; B 30 g a.i./ha): 46.9%
- Control effect of B applied alone in a corresponding dose (%) ([1]; B 60 g a.i./ha): 68.0%

Compound: COC(=O)c1nc(-c2ccc(Cl)c(OC)c2F)cc(N)c1Cl [Halauxifen-methyl]
- Control effect of B applied alone in a corresponding dose (%) ([1]; B 3 g a.i./ha): 42.0%
- Control effect of B applied alone in a corresponding dose (%) ([1]; B 6 g a.i./ha): 67.4%

Compound: O=C(O)c1nc(Cl)ccc1Cl [Clopyralid]
- Control effect of B applied alone in a corresponding dose (%) ([1]; B 30 g a.i./ha): 40.5%
- Control effect of B applied alone in a corresponding dose (%) ([1]; B 60 g a.i./ha): 58.8%

Compound: CCOC(=O)c1nc(-c2ccc(C(F)(F)F)c(OC)c2F)nc(N)c1OC
- Control effect of B applied alone in a corresponding dose (%) ([1]; B 6 g a.i./ha): 26.8%
- Control effect of B applied alone in a corresponding dose (%) ([1]; B 12 g a.i./ha): 37.7%

Compound: c1cc[n+]2c(c1)-c1cccc[n+]1CC2 [Diquat dibromide monohydrate]
- Control effect of B applied alone in a corresponding dose (%) ([1]; B 60 g a.i./ha): 42.2%
- Control effect of B applied alone in a corresponding dose (%) ([1]; B 120 g a.i./ha): 66.6%

Compound: O=C(O)CNCP(=O)(O)O [Glyphosate]
- Control effect of B applied alone in a corresponding dose (%) ([1]; B 75 g a.i./ha): 56.6%
- Control effect of B applied alone in a corresponding dose (%) ([1]; B 150 g a.i./ha): 75.8%

Compound: CCOC(=O)COc1ncccc1Oc1cc(-n2c(=O)cc(C(F)(F)F)n(C)c2=O)c(F)cc1Cl [Epyrifenacil]
- Control effect of B applied alone in a corresponding dose (%) ([8]; B 30 g a.i./ha): 38.8%
- Control effect of B applied alone in a corresponding dose (%) ([8]; B 60 g a.i./ha): 50.5%

Source: patent US20260305610A1, “TRIAZOLE COMPOUND, AND PREPARATION METHOD THEREFOR, HERBICIDAL COMPOSITION AND USE THEREOF” (QINGDAO KINGAGROOT CHEMICAL COMPOUND CO., LTD., priority 2023, published 2026)
